From article PMC7932521, “2-aminobenzimidazoles for leishmaniasis: From initial hit discovery to in vivo profiling” (PLoS Neglected Tropical Diseases, 2021) come the findings set out here.

Usually pIC50 stands for −log10 of the IC50, conventionally taken in molar units. Broadly, the chromatographic logD is lipophilicity estimated from chromatographic retention. A high value points to higher lipophilicity. As a reminder, the CC50 is the concentration that lowers cell viability or growth by half.

pIC50: −log10 of the molar value. Where two headings read alike, the source gives them in different places. Where only a bound is given, the exact number is not on record here.

The nature of data set [1]: Parallel artificial membrane permeability assay (PAMPA). Type of data set: in vitro ADME. Particulars: PAMPA, S1 Data; read-out: PAMPA Pe. On the procedure: To determine the passive permeability of the compounds, a 96-well plate containing membranes pre-coated with lipids (Corning Gentest # 353015) was used. The solutions of the compounds were prepared by diluting the stock solutions (10mM) in phosphate buffered saline (PBS) pH 6.5 at a final concentration of 10μM. The solutions diluted in PBS pH 6.5 were then added to the donor portion of the plate (300 μl/well), while PBS pH 7.4 (200 μl/well) was added to the acceptor portion. The two portions of the plate were then coupled, and the system was incubated for 5 h at 37°C. At the end of the incubation, samples were collected from the donor and acceptor plates, and then added to plates containing quench solution (10% water and 90% methanol: acetonitrile (50:50) + 50 nM tolbutamide). The final concentrations of compounds in the donor, acceptor, and initial solution (T0) wells were analyzed using LC-MS/MS. The results were used to calculate an effective permeability (Pe) value. The PAMPA assay was performed in triplicate (n = 3).
(In general: PAMPA measures passive passage across an artificial lipid membrane.)

For data set [2], the system named is Leishmania infantum MHOM/MA(BE)/67/ITMAP263 amastigotes. The data set is described as follows: L. infantum intracellular amastigote assay in PMM. Type of data set: cell-based. Particulars: for pIC50: Leishmania infantum, read-out: L. infantum IC50; for SI: selectivity index (CC50 / IC50): CC50 / L. infantum IC50. On the procedure: (§1) Leishmania infantum MHOM/MA(BE)/67/ITMAP263 amastigotes were collected from the spleen of infected donor Golden hamsters. Primary peritoneal mouse macrophages (PMM) were used as host cells for in vitro assays. PMM were collected from Swiss mice after 2 days of peritoneal stimulation with a 2% suspension of potato starch and maintained in RPMI-1640 medium supplemented with 200 mM L-glutamine, antibiotics and 5% FCS at 37°C and 5% CO2. Promastigotes of L. infantum chagasi (luciferase) (MHOM/BR/2005/NLC) obtained as described in Reimão et al.,[27] were grown in M199 medium supplemented with 10% FCS, 0.25% hemin, 32 μg/ml hygromycin and 2% sterile human urine at 25°C and 5% CO2.
(§2) Stock solutions of the compounds at 20 mM were prepared in 100% DMSO. Next, the compounds were serially pre-diluted in DMSO followed by a further dilution in demineralized water to assure a final in-test DMSO concentration below 1%. The compounds were tested at 4-fold dilutions starting at 64 μM.
For the antileishmania in vitro assays, 3×10^4 PMM/well were seeded in 96-well plates. After 24h, 5×10^5 amastigotes/well were added and incubated for 2h at 37°C. Next, the compounds in 4-fold serial dilutions were added and the plates were further incubated for 5 days (37°C, 5% CO2). Parasite burdens were assessed using an inverted microscope after Giemsa staining. The results were expressed as percent reduction in parasite burdens compared to negative control wells (100% growth) and IC50 values were determined. Values represent the geometric mean of at least two independent experiments. Miltefosine was used as the positive control in all plates.

Data set [3] relates to PMM (Primary Mouse Macrophages). Description: Cytotoxicity on primary peritoneal mouse macrophages. Type of data set: cell-based. Particulars: Mus musculus, Macrophage, read-out: PMM IC50. The procedure:
as §1, §2

A short description of data set [4]: Experimental distribution coefficient (eLogD). Type of data set: physicochemical. The following applies: pH 7.4. On the procedure: To determine the lipophilicity of the compounds, a methodology based on the retention time of molecules in reverse stationary phase (Ascentis RP-Amide HPLC column) was used. The chromatogram was obtained using LC-MS/MS. Test compounds were prepared at 1.0 μg/mL by adding the stock solution at (1:1) mobile phases A:B + internal standard at 200nM (A: 5% methanol in 10mM ammonium acetate pH 7.4, B: 100% methanol), DMSO concentration must be lower than 2%. […] The retention time (in minutes) of each of the eight standards was plotted against their LogD values. The resulting equation for the calibration curve (y = mx + b) was used to calculate the LogD values for the test compounds.

A short description of the next data set: MRC-5 cytotoxicity. Particulars: human, MRC-5 cells; S1 Data. The format is cell-based.
Data set [5] in a line: Mouse liver microsomal stability. The format is in vitro ADME. Particulars: for microsomal CLint at 0.5 μM: CD1, mouse, liver microsomes, pH 7.4, S1 Data, read-out: MLM CLint. On the procedure:
The metabolic stability of the compounds was evaluated in human (pool of 200 donors, XenoTech) and mouse liver microsomes (CD1 mouse, GIBCO). Test compounds were prepared at a concentration of 0.5 μM and incubated with 0.25 mg/mL liver microsomes at pH 7.4 and 37°C. The reaction was started by addition of NADPH at […]. Samples were taken at 0, 5, 10, 15, 20 and 30 minutes. The reaction was stopped by the addition of acetonitrile:methanol (1:1) containing an internal standard (tolbutamide at 50 nM). Compounds were quantified by liquid chromatography triple quadrupole mass spectrometry (LC-MS/MS). Peak area ratios (analyte/internal standard) were converted to % remaining using the area ratio at time 0 as 100%. Half-life (t1/2 = ln(2)/k) in minutes and intrinsic clearance (Clint = k x 1000/(0.25)) in μL/min/mg were calculated using a non-linear regression from % remaining versus incubation time. From this plot, the slope (k) was determined. The analysis conditions were: analytical column (Gemini C18, […], Phenomenex), electrospray ionization source (ESI) in positive and negative mode, mobile phase A (water + 0.1% formic acid) and B (acetonitrile + 0.1% formic acid), flow rate of 0.7 mL/min.
A general note: Microsomes from liver hold many membrane-bound enzymes, among them those of drug oxidation.

[6] abbreviates: 120 h, intracellular amastigotes in PMM, 5 days.
Where [7] appears, read: reverse stationary phase HPLC column (Ascentis RP-Amide), S1 Data.
Setting [8] is: reverse-phase HPLC retention (Ascentis RP-Amide column), experimental.

Regarding `CC(C)(C)n1c(NC(=O)Cc2ccc(F)cc2)nc2cc(F)ccc21` [Compound 19, Fc1cc(nc(NC(=O)Cc2ccc(F)cc2)n3C(C)(C)C)c3cc1], the Papp at 5 h, 10 μM in data set [1] was 6.35 ×10⁻⁶ cm/s. For the same compound, the pIC50 was 4.72 in data set [2] (setting [6]), 4.73 in data set [2] (S1 Data) and less than 4.19 in data set [3]. Moreover, the chromatographic logD in data set [4] (setting [7]) came out at 4.04; in data set [4] (setting [8]), 4. This compound also returned a CC50 in “MRC-5 cytotoxicity” of more than 64 µM. Further, the microsomal CLint at 0.5 μM in data set [5] was determined as 373 µL/min/mg.

For the compound `O=C(Cc1ccc(F)cc1)Nc1nc2cc(F)ccc2n1CCCN1CCOCC1` [Compound 27, Fc1cc(nc(NC(=O)Cc2ccc(F)cc2)n3CCCN4CCOCC4)c3cc1], the Papp at 5 h, 10 μM in data set [1] turned out to be 4.74 ×10⁻⁶ cm/s. Also, the values for the negative-log IC50 (pIC50) in data set [2] (setting [6]), in data set [2] (S1 Data) and in data set [3] were 4.62, 4.63 and 4.34, respectively. Also, the chromatographic logD in data set [4] (setting [7]) is 3.42. The compound also had a half-maximal cytotoxic concentration (CC50) in the data set “MRC-5 cytotoxicity” of 60.9 µM. The microsomal CLint at 0.5 μM in data set [5] was 335 µL/min/mg.

On to `O=C(Cc1ccc(F)cc1)Nc1nc2ccc(F)cc2n1CC1CC1` [Compound 21, Fc1cc2c(nc(NC(=O)Cc3ccc(F)cc3)n2CC4CC4)cc1], for which the Papp at 5 h, 10 μM in data set [1] was 19.4 ×10⁻⁶ cm/s. Further, the negative logarithm of the IC50 (pIC50) is 5.09 in data set [2] (setting [6]), 5.09 in data set [2] (S1 Data) and less than 4.19 in data set [3]. In data set [4] (setting [7]), this compound came in with a chromatographic logD of 4.12. For the same compound, the cytotoxic concentration (CC50) in the data set “MRC-5 cytotoxicity” was 17.4 µM. Besides, in data set [5], the microsomal CLint at 0.5 μM amounted to 887 µL/min/mg.

Consider `O=C(Cc1ccc(F)cc1)Nc1nc2cc(F)ccc2n1C1CCOCC1` [Compound 28, Fc1cc(nc(NC(=O)Cc2ccc(F)cc2)n3C4CCOCC4)c3cc1], for which, in data set [1], the Papp at 5 h, 10 μM was 19.6 ×10⁻⁶ cm/s. Also, the negative logarithm of the IC50 (pIC50) in data set [2] (setting [6]) is 4.89; in data set [2] (S1 Data) it was 4.90; in data set [3] it was less than 4.19. The compound further registered a chromatographic logD in data set [4] (setting [7]) of 3.32. This compound registered a cytotoxic concentration (CC50) in the data set “MRC-5 cytotoxicity” of more than 64 µM. Moreover, the microsomal CLint at 0.5 μM in data set [5] was 133 µL/min/mg.

Turning to `CCCn1c(NC(=O)Cc2ccc(F)cc2)nc2ccccc21` [Compound 2, CCCn1c(nc2c1cccc2)NC(Cc3ccc(cc3)F)=O], in data set [1], the Papp at 5 h, 10 μM turned out to be 6.63 ×10⁻⁶ cm/s. Further, the “SI: selectivity index (CC50 / IC50)” value in data set [2] is recorded as 2. The pIC50 in data set [2] (setting [6]) is 4.82; in data set [2] (S1 Data), 4.83; in data set [3], 4.49. Besides, the eLogD in data set [4] (experimental) turned out to be 4.0. In data set [4] (setting [7]), this compound gave a chromatographic logD of 3.97. The CC50 in “MRC-5 cytotoxicity” was more than 64 µM. Besides, the microsomal CLint at 0.5 μM in data set [5] was determined as 2760 µL/min/mg.

Take `O=C(Cc1ccc(Cl)cc1)Nc1nc2cc(F)ccc2[nH]1` [Compound 18, Fc1ccc([nH]c(NC(Cc2ccc(Cl)cc2)=O)n3)c3c1]: in data set [1], the Papp at 5 h, 10 μM came to 6.04 ×10⁻⁶ cm/s. In addition, the negative logarithm of the IC50 (pIC50) in data set [2] (S1 Data) and in data set [3] was less than 4.19 in each case. Also, the “L. infantum IC50” value in data set [2] (intracellular amastigotes in PMM, 5 days) was “poor activity”. Also, the chromatographic logD in data set [4] (setting [7]) came to 4.26; in data set [4] (setting [8]), 3.9. For the same compound, the CC50 in “MRC-5 cytotoxicity” is more than 64 µM. The microsomal CLint at 0.5 μM in data set [5] amounted to 366 µL/min/mg.

With `CCCn1c(NC(=O)Cc2ccc(F)cc2)nc2cc(F)c(F)cc21` [Compound 6, Fc1cc(n(CCC)c(NC(=O)Cc2ccc(F)cc2)n3)c3cc1F], the Papp at 5 h, 10 μM in data set [1] was determined as 13.6 ×10⁻⁶ cm/s. Moreover, in data set [2], the “SI: selectivity index (CC50 / IC50)” value was 29. Besides, the pIC50 in data set [2] (setting [6]) was 5.66; in data set [2] (S1 Data), 5.66; in data set [3], less than 4.19. In data set [4] (setting [7]), this compound registered a chromatographic logD of 4.04. In the data set “MRC-5 cytotoxicity”, this compound yielded a cytotoxic concentration (CC50) of more than 64 µM. The “MLM CLint” value in data set [5] (mouse liver microsome intrinsic clearance) was determined as 399 µL/min/mg.

As for `Cn1nccc1C(=O)Nc1nc2cccnc2n1CC(C)(C)C` [Compound 54, CC(Cn1c(NC(=O)c2n(C)ncc2)nc(c13)cccn3)(C)C], the Papp at 5 h, 10 μM in data set [1] was 11.7 ×10⁻⁶ cm/s. Moreover, the “SI: selectivity index (CC50 / IC50)” value in data set [2] came out at 4. Further, the negative logarithm of the IC50 (pIC50) was 5.11 in data set [2] (setting [6]), 5.11 in data set [2] (S1 Data) and 4.49 in data set [3]. For the same compound, the chromatographic logD came out at 4.04 in data set [4] (setting [7]) and 4 in data set [4] (setting [8]). Further, the midpoint of cytotoxicity in the data set “MRC-5 cytotoxicity”, the CC50, lay at 43.7 µM. In addition, in data set [5] (S1 Data), the “MLM CLint” value worked out at 222 µL/min/mg.
